Measurements published in the NIST ThermoML archive (doi:10.1021/je200883w).

Conditions: 101.33 kPa, Liquid; for viscosity: Concentric cylinders viscometry; for mass density: Vibrating tube method

COCC[N+]1(C)CCCC1.O=S(=O)([N-]S(=O)(=O)C(F)(F)F)C(F)(F)F
Conditions | mass density [kg/m3] | viscosity [mPa·s]
258.15 K | 1494.1 | 620.3
263.15 K | 1488.7 | 412.3
268.15 K | 1483.6 | 286.4
273.15 K | 1478.5 | 204.56
278.15 K | 1473.7 | 149.89
283.15 K | 1468.8 | 112.96
288.15 K | 1464 | 87.14
293.15 K | 1459.3 | 68.61
298.15 K | 1454.7 | 55.06
303.15 K | 1450 | 44.9
308.15 K | 1445.2 | 37.15
313.15 K | 1440.5 | 31.15
318.15 K | 1435.9 | 26.43
323.15 K | 1431.2 | 22.66
328.15 K | 1426.6 | 19.59
333.15 K | 1422 | 17.09
338.15 K | 1417.4 | 15.03
343.15 K | 1412.9 | 13.32
348.15 K | 1408.2 | 11.88
353.15 K | 1403.3 | 10.66
358.15 K | 1398.6 | 9.617
363.15 K | 1394.2 | 8.718
368.15 K | 1389.9 | 7.94
373.15 K | 1385.7 | 7.263

CCCCCCOS(=O)(=O)[O-].CC[n+]1ccn(C)c1 [3-ethyl-1-methyl-1H-imidazolium hexyl sulfate]
Conditions | mass density [kg/m3] | viscosity [mPa·s]
268.15 K | 1151.4 | 3425.9
273.15 K | 1147.9 | 2124.1
278.15 K | 1144.4 | 1362.1
283.15 K | 1140.9 | 904.77
288.15 K | 1137.4 | 620.25
293.15 K | 1133.8 | 437.53
298.15 K | 1130.4 | 316.78
303.15 K | 1127 | 234.83
308.15 K | 1123.7 | 177.81
313.15 K | 1120.5 | 137.23
318.15 K | 1117.2 | 107.82
323.15 K | 1114 | 86.06
328.15 K | 1110.8 | 69.71
333.15 K | 1107.6 | 57.21
338.15 K | 1104.4 | 47.52
343.15 K | 1101.2 | 39.91
348.15 K | 1097.9 | 33.86
353.15 K | 1094.5 | 29
358.15 K | 1091.2 | 25.04
363.15 K | 1088.1 | 21.8
368.15 K | 1085.1 | 19.11
373.15 K | 1082.3 | 16.87

CCCC[N+]1(C)CCCC1.FC(F)(F)C(F)(F)[P-](F)(F)(F)(C(F)(F)C(F)(F)F)C(F)(F)C(F)(F)F
Conditions | mass density [kg/m3] | viscosity [mPa·s]
283.15 K | 1599.8 | 593.7
288.15 K | 1594.2 | 409.8
293.15 K | 1588.6 | 291.5
298.15 K | 1583.2 | 213.1
303.15 K | 1577.9 | 159.61
308.15 K | 1572.6 | 122.18
313.15 K | 1567.4 | 95.36
318.15 K | 1562.1 | 75.75
323.15 K | 1556.9 | 61.13
328.15 K | 1551.7 | 50.03
333.15 K | 1546.6 | 41.48
338.15 K | 1541.5 | 34.79
343.15 K | 1536.3 | 29.49
348.15 K | 1531.1 | 25.24
353.15 K | 1525.7 | 21.79
358.15 K | 1520.4 | 18.97
363.15 K | 1515.3 | 16.63
368.15 K | 1510.4 | 14.68
373.15 K | 1505.5 | 13.04

CCCC[N+]1(C)CCCC1.O=S(=O)([O-])C(F)(F)F [1-butyl-1-methylpyrrolidinium trifluoromethanesulfonate]
Conditions | mass density [kg/m3] | viscosity [mPa·s]
283.15 K | 1263.6 | 414.9
288.15 K | 1259.9 | 299.4
293.15 K | 1256.1 | 221.7
298.15 K | 1252.4 | 167.87
303.15 K | 1248.7 | 129.71
308.15 K | 1245.1 | 102.06
313.15 K | 1241.5 | 81.62
318.15 K | 1238 | 66.24
323.15 K | 1234.4 | 54.48
328.15 K | 1230.8 | 45.34
333.15 K | 1227.3 | 38.16
338.15 K | 1223.8 | 32.45
343.15 K | 1220.3 | 27.84
348.15 K | 1216.8 | 24.08
353.15 K | 1213.3 | 21
358.15 K | 1209.7 | 18.44
363.15 K | 1205.9 | 16.29
368.15 K | 1202.5 | 14.48
373.15 K | 1199.2 | 12.95

CCOS(=O)(=O)[O-].CCn1cc[n+](C)c1 [1-ethyl-3-methylimidazolium ethyl sulfate]
Conditions | mass density [kg/m3] | viscosity [mPa·s]
253.15 K | 1270.6 | 3146.4
258.15 K | 1266.9 | 1789.6
263.15 K | 1263.3 | 1094.4
268.15 K | 1259.5 | 700.85
273.15 K | 1255.7 | 466.03
278.15 K | 1252 | 321.37
283.15 K | 1248.3 | 229.15
288.15 K | 1244.8 | 168.31
293.15 K | 1241.3 | 126.89
298.15 K | 1237.8 | 97.84
303.15 K | 1234.4 | 77.01
308.15 K | 1231 | 61.71
313.15 K | 1227.6 | 50.25
318.15 K | 1224.2 | 41.51
323.15 K | 1220.8 | 34.73
328.15 K | 1217.4 | 29.4
333.15 K | 1214 | 25.15
338.15 K | 1210.6 | 21.72
343.15 K | 1207.2 | 18.91
348.15 K | 1203.8 | 16.6
353.15 K | 1200.4 | 14.68
358.15 K | 1197.2 | 13.06
363.15 K | 1194.1 | 11.69
368.15 K | 1191.1 | 10.52
373.15 K | 1188.2 | 9.518

CCCC[N+]1(C)CCCC1.O=S(=O)([N-]S(=O)(=O)C(F)(F)F)C(F)(F)F
Conditions | mass density [kg/m3] | viscosity [mPa·s]
278.15 K | 1412.9 | 230.3
283.15 K | 1408.3 | 169.6
288.15 K | 1403.8 | 128
293.15 K | 1399.3 | 98.74
298.15 K | 1394.9 | 77.65
303.15 K | 1390.5 | 62.14
308.15 K | 1386.1 | 50.52
313.15 K | 1381.8 | 41.65
318.15 K | 1377.4 | 34.78
323.15 K | 1373 | 29.38
328.15 K | 1368.7 | 25.07
333.15 K | 1364.3 | 21.6
338.15 K | 1360 | 18.77
343.15 K | 1355.7 | 16.44
348.15 K | 1351.4 | 14.5
353.15 K | 1346.9 | 12.87
358.15 K | 1342.5 | 11.5
363.15 K | 1338.3 | 10.33
368.15 K | 1334.3 | 9.32
373.15 K | 1330.3 | 8.454

CCCCCCCCCCCCCC[P+](CCCCCC)(CCCCCC)CCCCCC.FC(F)(F)C(F)(F)[P-](F)(F)(F)(C(F)(F)C(F)(F)F)C(F)(F)C(F)(F)F
Conditions | mass density [kg/m3] | viscosity [mPa·s]
268.15 K | 1207.4 | 3067.3
273.15 K | 1203.2 | 2010
278.15 K | 1198.9 | 1345.2
283.15 K | 1194.6 | 928.39
288.15 K | 1190.3 | 654.2
293.15 K | 1186 | 471.76
298.15 K | 1181.7 | 347.06
303.15 K | 1177.6 | 260.12
308.15 K | 1173.5 | 198.3
313.15 K | 1169.4 | 153.61
318.15 K | 1165.3 | 120.76
323.15 K | 1161.3 | 96.23
328.15 K | 1157.3 | 77.68
333.15 K | 1153.3 | 63.45
338.15 K | 1149.3 | 52.39
343.15 K | 1145.3 | 43.71
348.15 K | 1141.2 | 36.8
353.15 K | 1137 | 31.27
358.15 K | 1132.7 | 26.79
363.15 K | 1128.7 | 23.12
368.15 K | 1124.9 | 20.09
373.15 K | 1121.1 | 17.57
